# Source: patent US10351914B2, “Biomarkers for Pin1-associated disorders” (Beth Israel Deaconess Medical Center, Inc., priority 2014, dated 2019)
# Columns and labels:
# [1] = test system: Pin1 and SIRT1 interaction; experiment: Pin1 and SIRT1 interaction by Co-IP and co-immunostaining; format: cell-based; conditions: Co-IP (FIG. 1 K) and co-immunostaining (FIG. 1 L)
# Text: Out of the seven Sirtuin family members, SIRT1, 2, 6, and 7 associated with Pin1 as shown by Co-IP and GST pull-down (FIG. 1 F). However, only SIRT1 reduced Pin1 acetylation (FIG. 1 G). Furthermore, overexpression of wild-type (WT), but not its catalytic dead (H363Y) mutant, induced Pin1 deacetylation in cells (FIG. 1 H). […] In addition, since other studies have shown that glucose starvation activates SIRT1 activity, an investigation was made to know whether glucose starvation-induced Pin1 deacetylation is mediated by SIRT1.
# Pin1 acetylation = Pin1 acetylation in cells (Co-IP with anti-Flag antibody, immunoblotting with anti-acetyl lysine antibody); format: cell-based
# Text: FIG. 1 depicts HTS results for glucose starvation induced Pin1 deacetylation in cells 100. Different stress tests, such as heat shock, ultraviolet radiation, and glucose starvation (Glu^−), may produce an extracellular stimulus that could transform one or more cellular responses related to cell growth, differentiation, activation of transcript factors, glucose metabolism, control of proteins synthesis, and regulation of cell cycle. Among these stresses testes, glucose starvation (Glu^−), may reduce Pin1 acetylation without affecting its protein expression (FIG. 1 A). […] Protein acetylation may be catalytically modulated by a particular pair of histone acetyl transferase (HAT) and histone deacetylase (HDAC) (Yang and Seto, 2007). To identify the HAT and HDAC that modulates Pin1 acetylation, Flag-tagged Pin1 was expressed with several HATs including p300, CBP or GCN5 in cells, followed by co-immunoprecipitation (Co-IP) with anti-Flag antibody and immunoblotting with anti-acetyl lysine antibody. […] Moreover, Pin1 Co-IPed with p300, supporting that p300 is a HAT for Pin1. For the corresponding HDAC, various HDAC inhibitors targeting different HDAC categories were used, including Trichostatin A (TSA) and MS-275 for class I and II HDACs as well as Nicotinamide (NAM) and Splitomicin (Splito) for class III HDACs.
# [2] = HDAC inhibitors in cells, FIG. 1 E
structure (smiles),measurement,setting,value
"O=CC[C@@H](O)[C@H](O)[C@H](O)CO [2-DG, 2-deoxyglucose]",Pin1 binding with SIRT1,[1],increased binding with SIRT1
same,effect on Pin1 acetylation,"Pin1 acetylation; mimicking glucose starvation, FIG. 1 B",reduction in Pin1 acetylation in a time- or dose-dependent manner
CCCCCCCCCCCCCCCc1cccc(O)c1C(=O)O [Anacardic acid],effect on p300-increased Pin1 acetylation (Acetyl-Pin1),"Pin1 acetylation; cells overexpressing p300 with Flag-Pin1, FIG. 1 D",reversed
"NC(=O)c1cccnc1 [NAM, Nicotinamide]",effect on Pin1 acetylation,Pin1 acetylation; [2],increased Pin1 acetylation
"O=C1CCc2c(ccc3ccccc23)O1 [Splito, Splitomicin]",effect on Pin1 acetylation,Pin1 acetylation; [2],increased Pin1 acetylation
